Assay results reported in ChEMBL document CHEMBL3132825, “Preparation of phenylethylbenzamide derivatives as modulators of DNMT3 activity” (Medchemcomm, 2013).
The source made the active and inactive calls. No cut-off for these calls is given here.

Assays:
[1] = target: Histone-lysine N-methyltransferase EZH2 (Homo sapiens) (UniProt Q15910); test: Inhibition of EZH2 (unknown origin) using [methyl-3H]SAM and biotinylated nucleosome PRC2 and H3K27Me3 activator peptide up to 80 uM by [3H]methyl group incorporation assay
[2] = target: DNA (cytosine-5)-methyltransferase 1 (Homo sapiens) (UniProt P26358); test: Inhibition of human DNMT1 using [methyl-3H]SAM and biotinylated hemimethylated DNA duplex at 100 uM by [3H]methyl group incorporation assay
[3] = target: Histone-lysine N-methyltransferase, H3 lysine-79 specific (Homo sapiens) (UniProt Q8TEK3); test: Inhibition of DOT1L (unknown origin) using [methyl-3H]SAM and biotinylated nucleosome PRC2 and H3K27Me3 activator peptide up to 80 uM by [3H]methyl group incorporation assay
[4] = target: T1, DNA (cytosine-5)-methyltransferase 3A (Homo sapiens, UniProt Q9Y6K1); test: Inhibition of human DNMT3A catalytic domain (623 to 912 amino acids) at 100 uM after 1 hr by fluorescence assay
MDA-MB-231 [5] = test: Toxicity against human MDA-MB-231 cells; format: cell-based
[6] = target: T1, DNA (cytosine-5)-methyltransferase 3A; test: Inhibition of human DNMT3A catalytic domain (623 to 912 amino acids) at 10 uM after 1 hr by fluorescence assay
MDA-MB-231 [7] = test: Inhibition of DNMT in human MDA-MB-231 cells assessed as reduction in methylation level at 100 uM by luminometric methylation assay; format: cell-based
MDA-MB-231 [8] = test: Inhibition of DNMT in human MDA-MB-231 cells assessed as reduction in methylation level at 200 uM by luminometric methylation assay; format: cell-based
[9] = target: T1, DNA (cytosine-5)-methyltransferase 3A; test: Inhibition of human DNMT3A catalytic domain (623 to 912 amino acids) after 1 hr by fluorescence assay
MDA-MB-231 [10] = test: Inhibition of DNMT in human MDA-MB-231 cells assessed as reduction in methylation level at 1 uM by luminometric methylation assay; format: cell-based
[11] = target: DNA (cytosine-5)-methyltransferase 1 (Homo sapiens) (UniProt P26358); test: Inhibition of human DNMT1 using [methyl-3H]SAM and biotinylated hemimethylated DNA duplex at 50 to 200 uM by [3H]methyl group incorporation assay

Sequence of Histone-lysine N-methyltransferase, H3 lysine-79 specific (Homo sapiens) (Q8TEK3 whole entry, looked up, the tested form may be a part): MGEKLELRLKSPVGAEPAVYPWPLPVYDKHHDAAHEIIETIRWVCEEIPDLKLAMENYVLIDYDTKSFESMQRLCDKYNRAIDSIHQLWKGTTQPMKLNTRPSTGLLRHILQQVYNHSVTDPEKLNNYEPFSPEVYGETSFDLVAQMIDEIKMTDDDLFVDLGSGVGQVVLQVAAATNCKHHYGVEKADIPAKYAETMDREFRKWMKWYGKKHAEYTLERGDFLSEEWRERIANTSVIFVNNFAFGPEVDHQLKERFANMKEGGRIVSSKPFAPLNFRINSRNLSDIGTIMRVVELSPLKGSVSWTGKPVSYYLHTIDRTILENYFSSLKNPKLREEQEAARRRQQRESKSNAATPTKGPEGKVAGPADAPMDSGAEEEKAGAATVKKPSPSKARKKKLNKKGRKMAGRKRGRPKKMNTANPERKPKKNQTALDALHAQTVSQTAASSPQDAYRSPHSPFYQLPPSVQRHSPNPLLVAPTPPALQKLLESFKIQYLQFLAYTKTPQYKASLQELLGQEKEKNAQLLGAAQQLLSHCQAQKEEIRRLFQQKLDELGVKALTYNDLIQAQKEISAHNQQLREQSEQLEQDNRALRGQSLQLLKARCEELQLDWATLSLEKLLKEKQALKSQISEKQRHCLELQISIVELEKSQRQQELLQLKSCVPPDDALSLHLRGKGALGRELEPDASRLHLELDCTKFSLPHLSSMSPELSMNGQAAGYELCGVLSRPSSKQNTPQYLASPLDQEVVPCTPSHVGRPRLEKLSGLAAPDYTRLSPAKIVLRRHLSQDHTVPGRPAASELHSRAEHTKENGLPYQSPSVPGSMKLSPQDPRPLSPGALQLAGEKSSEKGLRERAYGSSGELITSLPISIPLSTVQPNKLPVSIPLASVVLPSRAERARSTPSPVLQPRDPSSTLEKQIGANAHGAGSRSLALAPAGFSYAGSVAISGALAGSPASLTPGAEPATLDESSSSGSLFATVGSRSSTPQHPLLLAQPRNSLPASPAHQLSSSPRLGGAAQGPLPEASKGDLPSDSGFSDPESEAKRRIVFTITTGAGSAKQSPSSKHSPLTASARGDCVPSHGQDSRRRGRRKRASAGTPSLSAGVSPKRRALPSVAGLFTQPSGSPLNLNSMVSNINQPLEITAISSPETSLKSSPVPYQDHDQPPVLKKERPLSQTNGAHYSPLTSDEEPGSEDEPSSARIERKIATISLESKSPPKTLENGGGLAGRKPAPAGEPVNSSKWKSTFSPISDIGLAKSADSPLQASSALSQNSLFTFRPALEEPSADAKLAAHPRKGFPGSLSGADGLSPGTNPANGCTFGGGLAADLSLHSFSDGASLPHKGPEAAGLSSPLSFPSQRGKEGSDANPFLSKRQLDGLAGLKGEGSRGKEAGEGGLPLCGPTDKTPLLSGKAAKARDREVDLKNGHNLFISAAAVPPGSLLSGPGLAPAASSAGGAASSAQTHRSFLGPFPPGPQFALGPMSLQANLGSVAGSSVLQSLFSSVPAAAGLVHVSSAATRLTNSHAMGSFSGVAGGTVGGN
Sequence of Histone-lysine N-methyltransferase EZH2 (Homo sapiens) (Q15910 whole entry, looked up): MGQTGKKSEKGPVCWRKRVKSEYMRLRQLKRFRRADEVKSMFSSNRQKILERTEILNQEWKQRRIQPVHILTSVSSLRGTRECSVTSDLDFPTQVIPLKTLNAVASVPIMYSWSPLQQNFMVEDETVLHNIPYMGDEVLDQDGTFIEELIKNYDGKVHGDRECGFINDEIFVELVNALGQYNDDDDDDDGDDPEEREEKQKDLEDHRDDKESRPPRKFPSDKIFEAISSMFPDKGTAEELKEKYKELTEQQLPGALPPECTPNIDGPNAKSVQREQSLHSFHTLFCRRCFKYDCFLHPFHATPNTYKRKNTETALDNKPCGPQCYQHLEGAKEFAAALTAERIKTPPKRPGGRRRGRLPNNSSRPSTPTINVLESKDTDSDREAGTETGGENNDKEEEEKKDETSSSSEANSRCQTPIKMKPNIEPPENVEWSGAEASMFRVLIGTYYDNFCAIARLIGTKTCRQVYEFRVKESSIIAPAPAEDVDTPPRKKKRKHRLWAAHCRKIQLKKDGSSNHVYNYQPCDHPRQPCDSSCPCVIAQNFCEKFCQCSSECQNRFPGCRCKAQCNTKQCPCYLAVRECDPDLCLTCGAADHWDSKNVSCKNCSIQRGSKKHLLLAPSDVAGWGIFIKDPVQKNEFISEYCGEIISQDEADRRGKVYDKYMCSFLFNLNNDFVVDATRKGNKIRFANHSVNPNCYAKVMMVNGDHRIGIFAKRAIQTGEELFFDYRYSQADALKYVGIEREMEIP
Sequence of DNA (cytosine-5)-methyltransferase 1 (Homo sapiens) (P26358 whole entry): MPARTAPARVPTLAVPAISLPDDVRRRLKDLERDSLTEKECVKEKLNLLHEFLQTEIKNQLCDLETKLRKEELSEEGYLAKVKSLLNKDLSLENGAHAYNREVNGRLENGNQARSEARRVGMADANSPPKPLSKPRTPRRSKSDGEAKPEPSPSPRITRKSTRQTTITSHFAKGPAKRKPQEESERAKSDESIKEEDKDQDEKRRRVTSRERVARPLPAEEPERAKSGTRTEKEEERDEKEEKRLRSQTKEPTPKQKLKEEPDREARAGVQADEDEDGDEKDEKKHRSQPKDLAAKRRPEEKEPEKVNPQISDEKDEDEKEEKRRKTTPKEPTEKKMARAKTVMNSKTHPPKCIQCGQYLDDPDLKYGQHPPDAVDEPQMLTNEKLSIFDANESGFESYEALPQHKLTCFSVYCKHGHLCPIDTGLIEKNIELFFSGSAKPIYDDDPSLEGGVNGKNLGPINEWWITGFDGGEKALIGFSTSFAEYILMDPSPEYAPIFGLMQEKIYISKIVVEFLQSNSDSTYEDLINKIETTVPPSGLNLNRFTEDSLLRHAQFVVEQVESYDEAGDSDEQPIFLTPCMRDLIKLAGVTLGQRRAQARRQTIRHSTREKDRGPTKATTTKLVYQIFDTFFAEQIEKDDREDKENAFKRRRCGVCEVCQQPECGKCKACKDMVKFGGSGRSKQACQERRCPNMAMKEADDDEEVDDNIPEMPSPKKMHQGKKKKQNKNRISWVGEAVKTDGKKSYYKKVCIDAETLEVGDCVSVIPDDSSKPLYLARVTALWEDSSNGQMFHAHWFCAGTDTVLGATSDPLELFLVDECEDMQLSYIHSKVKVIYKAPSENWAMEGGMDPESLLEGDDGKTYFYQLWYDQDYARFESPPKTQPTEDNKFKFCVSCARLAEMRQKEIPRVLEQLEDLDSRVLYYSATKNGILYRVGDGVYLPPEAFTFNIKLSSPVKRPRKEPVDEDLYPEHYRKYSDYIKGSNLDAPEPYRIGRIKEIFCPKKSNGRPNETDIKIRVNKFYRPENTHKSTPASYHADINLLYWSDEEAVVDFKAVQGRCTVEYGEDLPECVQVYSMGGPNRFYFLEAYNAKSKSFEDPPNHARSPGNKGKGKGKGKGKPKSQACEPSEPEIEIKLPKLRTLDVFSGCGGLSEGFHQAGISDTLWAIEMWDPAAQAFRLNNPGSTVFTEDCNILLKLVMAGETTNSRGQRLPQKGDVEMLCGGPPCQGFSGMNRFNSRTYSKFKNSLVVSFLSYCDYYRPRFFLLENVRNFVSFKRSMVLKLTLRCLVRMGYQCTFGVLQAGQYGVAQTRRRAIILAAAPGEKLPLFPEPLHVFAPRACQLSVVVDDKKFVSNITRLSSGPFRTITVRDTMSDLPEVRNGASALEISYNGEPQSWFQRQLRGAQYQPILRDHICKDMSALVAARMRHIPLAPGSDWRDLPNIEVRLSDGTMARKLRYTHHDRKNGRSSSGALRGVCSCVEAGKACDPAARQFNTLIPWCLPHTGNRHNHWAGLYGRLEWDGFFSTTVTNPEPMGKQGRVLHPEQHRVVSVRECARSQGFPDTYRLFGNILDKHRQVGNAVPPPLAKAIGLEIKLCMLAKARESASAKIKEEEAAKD
T1 sequence (Q9Y6K1 whole entry, looked up, the tested form may be a part): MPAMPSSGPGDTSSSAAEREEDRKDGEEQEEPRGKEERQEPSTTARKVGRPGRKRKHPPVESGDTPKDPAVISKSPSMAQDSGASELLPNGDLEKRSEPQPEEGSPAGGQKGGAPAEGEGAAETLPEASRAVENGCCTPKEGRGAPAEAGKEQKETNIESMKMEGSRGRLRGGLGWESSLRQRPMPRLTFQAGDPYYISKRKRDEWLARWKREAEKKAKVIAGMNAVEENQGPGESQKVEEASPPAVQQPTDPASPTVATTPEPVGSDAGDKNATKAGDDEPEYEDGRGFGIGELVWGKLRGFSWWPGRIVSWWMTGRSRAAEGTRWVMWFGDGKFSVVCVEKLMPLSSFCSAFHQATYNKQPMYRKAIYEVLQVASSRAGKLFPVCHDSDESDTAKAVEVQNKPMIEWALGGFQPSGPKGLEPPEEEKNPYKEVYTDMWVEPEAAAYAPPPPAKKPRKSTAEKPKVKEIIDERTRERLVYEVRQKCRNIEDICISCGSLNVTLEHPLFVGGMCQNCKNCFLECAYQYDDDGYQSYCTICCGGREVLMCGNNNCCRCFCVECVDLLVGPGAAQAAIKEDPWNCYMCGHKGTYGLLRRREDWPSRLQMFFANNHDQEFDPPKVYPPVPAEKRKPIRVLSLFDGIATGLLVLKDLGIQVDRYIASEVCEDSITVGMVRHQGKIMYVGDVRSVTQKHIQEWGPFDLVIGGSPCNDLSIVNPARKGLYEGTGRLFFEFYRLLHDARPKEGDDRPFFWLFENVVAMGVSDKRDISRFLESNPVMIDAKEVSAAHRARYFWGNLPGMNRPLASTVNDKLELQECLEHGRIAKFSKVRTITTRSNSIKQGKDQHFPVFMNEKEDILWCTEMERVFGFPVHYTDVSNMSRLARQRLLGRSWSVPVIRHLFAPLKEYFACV

SMILES | inhibition [1] | inhibition [2] | inhibition [3] | also measured
COc1ccc(Cl)cc1C(=O)NCCc1ccc(/C=C/C(=O)O)cc1 | inactive | < 20% | inactive | 
O=C(O)CCc1ccc(CCNC(=O)c2ccc([N+](=O)[O-])cc2)cc1 | inactive | 14% | inactive | inhibition [4]: > 60%; Activity (MDA-MB-231 [5]): Toxic; inhibition [6]: > 13%
COc1ccc(Cl)cc1C(=O)NCCc1ccc(CCCO)cc1 | inactive | < 20% | inactive | 
COc1ccc(Cl)cc1C(=O)NCCc1ccc(CC(=O)O)cc1 | inactive | < 20% | inactive | 
COc1ccc(Cl)cc1C(=O)N[C@@H](Cc1ccc(OCC(=O)O)cc1)C(=O)O | inactive | < 20% | inactive | inhibition [4]: > 60%; inhibition (MDA-MB-231 [7]): inactive; Activity (MDA-MB-231 [5]): Non-toxic; inhibition (MDA-MB-231 [8]): Active; inhibition [6]: > 13%
COc1ccc(Cl)cc1C(=O)NCCc1ccc(O)cc1 | inactive | 16% | inactive | inhibition [4]: > 60%; EC50 [9]: 36 µM; Activity (MDA-MB-231 [5]): Toxic; inhibition [6]: > 13%
COc1ccc(Cl)cc1C(=O)NCCc1ccc(CC(C)C(=O)O)cc1 (stereo not drawn) | inactive | < 20% | inactive | 
COc1ccc(Cl)cc1NC(=O)CCc1ccc(CCC(=O)O)cc1 | inactive | < 20% | inactive | 
Nc1ncn([C@@H]2O[C@H](CO)[C@@H](O)[C@H]2O)c(=O)n1 |  |  |  | inhibition (MDA-MB-231 [10]): Active
COc1ccc(Cl)cc1C(=O)NCCc1cccc(CCC(=O)O)c1 | inactive | < 20% | inactive | 
COc1ccc(Cl)cc1C(=O)NCCc1ccc(CCC(=O)N2CCOCC2)cc1 | inactive | < 20% | inactive | 
COc1ccc(Cl)cc1C(=O)NCc1ccc(CCC(=O)O)cc1 | inactive | < 20% | inactive | inhibition [4]: > 60%; inhibition [6]: > 13%
CNC(=O)CCc1ccc(CCNC(=O)c2cc(Cl)ccc2OC)cc1 | inactive | < 20% | inactive | 
COc1ccc(Cl)cc1C(=O)NCCc1ccc(OCC(=O)O)cc1 | inactive | 15% | inactive | inhibition [4]: > 60%; inhibition (MDA-MB-231 [7]): inactive; Activity (MDA-MB-231 [5]): Non-toxic; inhibition (MDA-MB-231 [8]): inactive; inhibition [6]: > 13%
O=C(O)CCc1ccc(CCNC(=O)c2cc(C(F)(F)F)ccc2Cl)cc1 | inactive | < 20% | inactive | inhibition [4]: > 60%; Activity (MDA-MB-231 [5]): Toxic; inhibition [6]: inactive
COc1ccc(Cl)cc1C(=O)Nc1ccc(CCC(=O)O)cc1 | inactive | < 20% | inactive | inhibition [4]: > 60%; inhibition [6]: > 13%

SMILES | inhibition [1] | inhibition [2] | inhibition [3] | also measured
O=C(O)CCc1ccc(CCNC(=O)c2cccnc2)cc1 | inactive | < 20% | inactive | 
O=C(O)CCc1ccc(CCNC(=O)c2cc(Cl)ccc2F)cc1 | inactive | < 20% | inactive | 
COc1ccc(Cl)cc1C(=O)NCCc1ccc(C(C)CC(=O)O)cc1 (stereo not drawn) | inactive | < 20% | inactive | 
COc1ccc(Cl)cc1C(=O)N(C)CCc1ccc(CCC(=O)O)cc1 | inactive | < 20% | inactive | 
O=C(O)CCc1ccc(CCNC(=O)c2ccccc2F)cc1 | inactive | < 20% | inactive | 
COc1ccc(Cl)cc1C(=O)NCCc1ccc(CCC(=O)N(C)C)cc1 | inactive | < 20% | inactive | 
COc1ccc(Cl)cc1C(=O)NCCc1ccccc1 | inactive | < 20% | inactive | 
O=C(O)CCc1ccc(CCNC(=O)c2cccc(Cl)c2)cc1 | inactive | < 20% | inactive | 
COc1ccc(Cl)cc1C(=O)NCCc1ccc(C(=O)O)cc1 | inactive | < 20% | inactive | 
COc1cccc(C(=O)NCCc2ccc(CCC(=O)O)cc2)c1 | inactive | < 20% | inactive | 
COc1ccc(Cl)cc1CNCCc1ccc(CCC(=O)O)cc1 | inactive | < 20% | inactive | 
COc1ccc(Cl)cc1C(=O)NCCc1ccc(CCC(=O)O)cc1 | inactive | 2.9% | inactive | inhibition [4]: inactive; inhibition [6]: inactive; inhibition [11]: inactive
O=C(O)CCc1ccc(CCNC(=O)c2ccccc2Br)cc1 | inactive | < 20% | inactive | 
CCc1ccc(CCNC(=O)c2cc(Cl)ccc2OC)cc1 | inactive | < 20% | inactive | 
COc1ccc(Cl)cc1C(=O)NCCc1ccc(CCC(N)=O)cc1 | inactive | < 20% | inactive | 
